Experimental data as given in patent publication US8076485B2, “Methylphenidate derivatives and uses of them” (priority 2005, dated 2011).

Key:
[1] = threo versus erythro methylphenidate; cited from earlier work
erythropoietin (EPO) = assay: Erythropoietin (EPO) release from HepG2 cells (ELISA); format: cell-based, human; details: HepG2, hypoxia (5% CO2), 24 hours; Cpd II 15 μg/ml, LY 294002 25 μM; hypoxia alone 108.39 ± 2.81
Experimental: HepG2 is a human hepatic cancer cell line, which was obtained from ATCC. HepG2 cells were grown to confluence in 25 cm^2 flasks in IMDM medium containing 10% FCS. Then, the cells were trypsinized as follows. The medium in each flask was aspirated and replaced with 5 ml of 0.025% trypsin/EDTA (Cambrex). The cells were monitored on a microscope until they no longer adhered to the flasks. Then, 5 ml of trypsin neutralizing solution (TNS) (Cambrex) were added to each flask to stop the reaction. The cell suspension was centrifuged at 1000 rpm for 10 minutes, and the supernatants were aspirated. The cells were reconstituted in fresh medium and counted. Then, 4 ml of the cell suspension in medium containing at 1.22×10^6 cells/ml were mixed with an additional 1 ml of medium. Next, 0.5 ml/well of the resulting cell suspension was added to wells in a 24-well culture plate (about 500,000 cells/well). The cells were treated as indicated in Table 5 below and incubated for 24 hours at 37° C., with or without 5% CO2. The supernatants were removed from the wells and centrifuged to remove debris. Next, the supernatants were analyzed for erythropoietin (EPO) production. EPO was measured by ELISA using a kit obtained from R & D Systems, Minneapolis, Minn. (catalog no. DE900) following the manufacturer's instructions.

NFκB = assay: Activated NFκB in TNFα- or VEGF-treated HIAECs (TransAM assay); format: cell-based; details: Homo sapiens, TNFα 10 ng/ml, Cpd II 15 μg/ml, LY 294002 10 μM, read-out: Percent Inhibition (NFκB)
Experimental: Passage 8 (human iliac artery endothelial cells (HIAECs) (obtained from ATCC; catalog no. CC-2545) were grown to confluence in 25 cm^2 flasks in EGM-2 medium. Eighteen hours prior to the experiment, the medium was replaced with EGM-2 medium containing 0.1% FCS plus heparin, GA1000 (gentamycin) and bovine pituitary extract (all from Cambrex) to place the cells in a resting state. To perform the experiment the medium was aspirated from the flasks, and the following additives were added to the flasks in fresh medium (total volume of 5 ml/flask): 15 μg/ml of the compound of formula II (Cpd II) or 10 μM LY 294002. The flasks were incubated 2 hours at 37° C., 5% CO2. After this incubation, VEGF or TNFα was added to give a final concentration 10 ng/ml, and the flasks were incubated for an additional 30 minutes. Then, the amount of NFκB was determined using a TransAM™ NFκB p65/NFκB p50 Transcription Factor Assay Kit and a Nuclear Extract Kit from Active Motif North America, Carlsbad, Calif., as described in Example 12.

IL-8 = IL-8 release from LPS-stimulated THP-1 monocytes (ELISA); format: cell-based; details: THP-1, LPS 200 ng/ml, 24 hours; Cpd II 15 μg/ml, Dex 10 μM
Experimental: (§1) THP-1 is a monocyte cell line obtained from American Type Culture Collection (ATCC) (catalog no. TIB-202). […] After 1 hour, lipopolysaccharide (LPS) (obtained from Sigma) was added to the cultures to give a final concentration of 200 ng/ml, and the cells were then incubated for an additional 4 hours or for an additional 24 hours. After the incubation, the cells were centrifuged, and the supernatants were collected. The concentrations of IL-8 and TNFα in the supernatants were determined by ELISA.
The concentrations of IL-8 in the supernatants were determined by ELISA performed as described in Example 4.

TCR-positive cells = assay: Annexin staining of TCR-positive cells (flow cytometry, cell death); format: cell-based, human; details: PHA plus dexamethasone 10 μM
Experimental: After this incubation, PHA was added to give a final concentration of 5 μg/ml, and the cells were incubated for an additional 72 hours at 37° C., 5% CO2. All cultures were performed in triplicate. Cells were then removed by centrifugation at 1000 rpm for 10 minutes.
The cells were further analyzed by flow cytometry Annexin was used to determine populations of dead or dying cells. Anti-CD69 antibody was used to establish the level of cellular activation. Antibody to T-cell receptor αβ (TCR) was also used. Recombinant Annexin 5 (PE and FITC conjugates) and the antibodies were all purchase from Caltag (Burlingham, Calif.) and used following the manufacturer's recommendations.

TNFα = TNFα release from LPS-stimulated THP-1 monocytes (ELISA); format: cell-based; details: THP-1, LPS 200 ng/ml, 24 hours; Cpd II 15 μg/ml, Dex 10 μM
Experimental: as §1
The TNFα ELISA was performed as described in Example 2.

Compound: COC(=O)C(c1ccccc1)C1CCCCN1 (single isomer, unassigned) [threo diastereomer]
- potency relative to the erythro diastereomer [1]: about 80 times

Compound: O=c1cc(N2CCOCC2)oc2c(-c3ccccc3)cccc12 [LY 294002, reference compound]
- Mean Units/ml EPO (erythropoietin (EPO)): 52.99 ± 1.04 Units/ml
- inhibition at 10 µM (NFκB): 10%

Compound: C[C@@H]1C[C@H]2[C@@H]3CCC4=CC(=O)C=C[C@]4(C)[C@@]3(F)[C@@H](O)C[C@]2(C)[C@@]1(O)C(=O)CO [dexamethasone, reference compound]
- Mean IL-8 Concentration (IL-8): 2300.00 ± 283.41 pg/mL
- Annexin staining of TCR-positive cells (TCR-positive cells): 48%
- Mean TNFα Concentration (TNFα): 94.759 ± 8.755 pg/mL
